Measured values published in article PMC10222328 (Pharmaceuticals, 2023).

How the values were obtained:
[1] = tested on: carrageenan-induced rat paw edema; assay: Carrageenan-induced rat paw edema model; format: in vivo, Wistar albino rats; details: for Rat paw thickness: mean ± SD; for inhibition in vivo at 2.5 mg/kg / inhibition in vivo at 5 mg/kg / inhibition in vivo at 10 mg/kg: Rattus norvegicus, po
Method: In vivo assessment of anti-inflammatory activity of compounds 1–7 was conducted in the carrageenan-induced rat paw edema model. Inflammation in all rats was induced by an intraplantar injection of […] of 0.5% carrageenan saline in the left hind paw. Two hundred male Wistar albino rats (180–210 g) were divided into seven experimental (n = 168 rats, 8 rats per subgroup) and two control groups (n = 32 rats, 8 rats per subgroup).
Experimental groups involved rats that received compounds 1–7, and they were divided into three subgroups: rats received compounds 1–7 per os in three doses (2.5 mg/kg, 5 mg/kg, and 10 mg/kg) dissolved in 1% DMSO for 60 min before inducing inflammation.
In order to quantify the anti-inflammatory effect, the thickness of the left paw tissue of each rat was measured at the following time intervals: immediately before inducing inflammation (moment 0) and 1, 2, 3, and 4 h (moments 1, 2, 3, and 4) after inflammation. Tissue thickness was measured in the middle of the rat paw using a digital vernier caliper (Aerospace, Beijing, China).

5-LOX = target: T1, 5-LOX (Homo sapiens, UniProt P09917); assay: Fluorometric 5-LOX inhibitor screening kit; format: biochemical; details: mean ± standard error of two measurements; for inhibition at 10 µM: read-out: 5-LOX Percent of Inhibition
T1 construct: purchased Abcam, UK
T1 sequence (P09917 1-674): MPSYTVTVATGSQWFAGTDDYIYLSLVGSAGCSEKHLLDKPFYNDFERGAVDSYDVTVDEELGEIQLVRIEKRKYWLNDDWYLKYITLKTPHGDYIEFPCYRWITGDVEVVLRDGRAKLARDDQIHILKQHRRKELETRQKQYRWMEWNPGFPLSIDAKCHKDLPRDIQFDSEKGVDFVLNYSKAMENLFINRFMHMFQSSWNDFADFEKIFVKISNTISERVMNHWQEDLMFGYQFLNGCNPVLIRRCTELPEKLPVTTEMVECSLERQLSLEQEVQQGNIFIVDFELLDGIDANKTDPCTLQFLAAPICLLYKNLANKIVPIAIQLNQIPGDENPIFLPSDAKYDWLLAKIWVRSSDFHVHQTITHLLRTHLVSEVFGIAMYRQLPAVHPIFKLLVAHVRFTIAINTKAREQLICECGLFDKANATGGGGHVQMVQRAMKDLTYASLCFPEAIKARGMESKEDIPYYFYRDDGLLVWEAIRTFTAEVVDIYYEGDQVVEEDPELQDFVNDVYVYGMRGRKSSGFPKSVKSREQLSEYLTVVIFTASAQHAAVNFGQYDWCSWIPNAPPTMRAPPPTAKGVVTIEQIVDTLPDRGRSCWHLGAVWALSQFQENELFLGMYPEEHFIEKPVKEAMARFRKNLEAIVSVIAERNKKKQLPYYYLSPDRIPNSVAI
Method: (§1) COX-2 and 5-LOX inhibitory activities were tested using fluorometric COX-2 and 5-LOX inhibitor screening kits (Abcam, UK). These assays are based on the fluorometric detection of Prostaglandin G2 (a product generated by the COX enzyme) or on the fluorometric detection of intermediate generated by the 5-LOX enzyme. The experiments were conducted according to the manufacturers’ instructions.
(§2) For the determination of COX-2 inhibitory activity, tested compounds were dissolved in DMSO (5 mM stock solutions) and then diluted with the same solvent to obtain test solutions. Test solutions were further diluted 5X with COX assay buffer (2 µL of test solution and 8 µL COX assay buffer). […] Solvent control (SC) was prepared by adding 2 µL DMSO and 8 µL COX assay buffer, while sample (S) and enzyme control (EC) were prepared by adding 10 µL of diluted test solution and COX assay buffer, respectively, into assigned wells. For the determination of 5-LOX inhibitory activity, tested compounds were also dissolved in DMSO to prepare stock solutions with the same concentration (5mM), which were then diluted with the same solvent to obtain test solutions. Subsequently, test solutions were added to corresponding wells (2 µL).

COX-2 = target: T2, COX-2 (Homo sapiens, UniProt P35354); assay: Fluorometric COX-2 inhibitor screening kit; format: biochemical; details: at 10 µM; mean ± standard error of two measurements; read-out: COX-2 Percent of Inhibition
T2 construct: purchased Abcam, UK
T2 sequence (P35354 18-604): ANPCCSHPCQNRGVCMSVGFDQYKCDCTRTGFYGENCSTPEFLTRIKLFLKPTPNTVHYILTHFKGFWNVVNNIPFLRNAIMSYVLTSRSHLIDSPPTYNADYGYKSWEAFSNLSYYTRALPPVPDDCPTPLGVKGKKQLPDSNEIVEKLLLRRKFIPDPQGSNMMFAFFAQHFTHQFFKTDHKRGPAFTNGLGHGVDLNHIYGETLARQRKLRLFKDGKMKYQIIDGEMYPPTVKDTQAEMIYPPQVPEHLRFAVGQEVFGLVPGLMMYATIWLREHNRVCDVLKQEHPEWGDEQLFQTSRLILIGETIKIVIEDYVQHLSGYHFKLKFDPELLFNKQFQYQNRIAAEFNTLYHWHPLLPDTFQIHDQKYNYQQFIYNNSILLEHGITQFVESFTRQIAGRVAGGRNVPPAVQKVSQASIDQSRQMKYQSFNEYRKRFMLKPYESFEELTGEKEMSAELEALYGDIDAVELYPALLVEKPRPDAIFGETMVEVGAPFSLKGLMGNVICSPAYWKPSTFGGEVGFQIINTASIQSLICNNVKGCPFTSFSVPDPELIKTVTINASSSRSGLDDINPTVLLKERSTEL
Method: as §1, §2

[2] = 2.5 mg/kg per os, 1 h after carrageenan
[3] = 2.5 mg/kg per os, 2 h after carrageenan
[4] = 2.5 mg/kg per os, 3 h after carrageenan
[5] = 2.5 mg/kg per os, 4 h after carrageenan
[6] = 5.0 mg/kg per os, 1 h after carrageenan
[7] = 5.0 mg/kg per os, 2 h after carrageenan
[8] = 5.0 mg/kg per os, 3 h after carrageenan
[9] = 5.0 mg/kg per os, 4 h after carrageenan
[10] = 10.0 mg/kg per os, 1 h after carrageenan
[11] = 10.0 mg/kg per os, 2 h after carrageenan
[12] = 10.0 mg/kg per os, 3 h after carrageenan
[13] = 10.0 mg/kg per os, 4 h after carrageenan
[14] = 1 h, 2.5 mg/kg per os, 1 h after carrageenan
[15] = 1 h, 5.0 mg/kg per os, 1 h after carrageenan
[16] = 1 h, 10.0 mg/kg per os, 1 h after carrageenan
[17] = 2 h, 2.5 mg/kg per os, 2 h after carrageenan
[18] = 2 h, 5.0 mg/kg per os, 2 h after carrageenan
[19] = 2 h, 10.0 mg/kg per os, 2 h after carrageenan
[20] = 3 h, 2.5 mg/kg per os, 3 h after carrageenan
[21] = 3 h, 5.0 mg/kg per os, 3 h after carrageenan
[22] = 3 h, 10.0 mg/kg per os, 3 h after carrageenan
[23] = 4 h, 2.5 mg/kg per os, 4 h after carrageenan
[24] = 4 h, 5.0 mg/kg per os, 4 h after carrageenan
[25] = 4 h, 10.0 mg/kg per os, 4 h after carrageenan

Structure (SMILES)	Rat paw thickness [1, 2]	Rat paw thickness [1, 3]	Rat paw thickness [1, 4]	Rat paw thickness [1, 5]	Rat paw thickness [1, 6]	Rat paw thickness [1, 7]	Rat paw thickness [1, 8]	Rat paw thickness [1, 9]	Rat paw thickness [1, 10]	Rat paw thickness [1, 11]	Rat paw thickness [1, 12]	Rat paw thickness [1, 13]	inhibition in vivo at 2.5 mg/kg [1, 14]	inhibition in vivo at 5 mg/kg [1, 15]	inhibition in vivo at 10 mg/kg [1, 16]	inhibition in vivo at 2.5 mg/kg [1, 17]	inhibition in vivo at 5 mg/kg [1, 18]	inhibition in vivo at 10 mg/kg [1, 19]	inhibition in vivo at 2.5 mg/kg [1, 20]	inhibition in vivo at 5 mg/kg [1, 21]	also measured
COc1ccc2cc([C@H](C)C(=O)NC(=S)Nc3ccc(F)cc3)ccc2c1 [Compound 1, (S)-N-((4-fluorophenyl)carbamothioyl)-2-(6-methoxynaphthalen-2-yl)propanamide]	6.50 ± 0.40 mm	6.50 ± 0.40 mm	6.20 ± 0.30 mm	5.53 ± 0.29 mm	7.00 ± 0.10 mm	6.50 ± 0.17 mm	5.8 ± 0.20 mm	5.27 ± 0.29 mm	7.03 ± 0.12 mm	6.60 ± 0.10 mm	6.10 ± 0.17 mm	5.27 ± 0.50 mm	20.3%	-7.22%	-5.84%	11.1%	3.45%	1.92%	10.5%	23.3%	inhibition in vivo at 10 mg/kg [1, 22]: 10.5%; inhibition in vivo at 2.5 mg/kg [1, 23]: 33.3%; inhibition in vivo at 5 mg/kg [1, 24]: 40.2%; inhibition in vivo at 10 mg/kg [1, 25]: 44.8%; inhibition at 10 µM (5-LOX): 34.2 ± 1.04%; IC50 (5-LOX): 19.2 ± 0.96 µM; inhibition at 10 µM (COX-2): 24.7 ± 1.11%
COc1ccc(NC(=S)NC(=O)[C@@H](C)c2ccc3cc(OC)ccc3c2)cc1 [Compound 2, (S)-2-(6-methoxynaphthalen-2-yl)-N-((4-methoxyphenyl)carbamothioyl)propanamide]	6.57 ± 1.16 mm	6.07 ± 0.72 mm	5.77 ± 0.42 mm	5.30 ± 0.26 mm	7.03 ± 0.47 mm	6.40 ± 0.53 mm	5.70 ± 0.20 mm	5.53 ± 0.29 mm	6.5 ± 0.40 mm	6.17 ± 0.67 mm	5.53 ± 0.15 mm	5.33 ± 0.25 mm	9.28%	6.53%	23%	21.8%	24.9%	29.5%	23.3%	48.9%	inhibition in vivo at 10 mg/kg [1, 22]: 50.7%; inhibition in vivo at 2.5 mg/kg [1, 23]: 35.6%; inhibition in vivo at 5 mg/kg [1, 24]: 47.1%; inhibition in vivo at 10 mg/kg [1, 25]: 51.7%; inhibition at 10 µM (5-LOX): 25.1 ± 1.83%; IC50 (5-LOX): 39.8 ± 1.98 µM; inhibition at 10 µM (COX-2): 18.8 ± 4.37%
CCOc1ccc(NC(=S)NC(=O)[C@@H](C)c2ccc3cc(OC)ccc3c2)cc1 [Compound 3, (S)-N-((4-ethoxyphenyl)carbamothioyl)-2-(6-methoxynaphthalen-2-yl)propanamide]	6.25 ± 0.21 mm	6.0 ± 0.57 mm	5.50 ± 0.42 mm	5.10 ± 0.14 mm	6.40 ± 0.79 mm	5.73 ± 0.38 mm	5.44 ± 0.28 mm	4.97 ± 0.42 mm	6.23 ± 0.25 mm	5.80 ± 0.26 mm	5.27 ± 0.15 mm	4.67 ± 0.38 mm	19.6%	6.53%	3.78%	21.8%	26.4%	12.6%	34.2%	28.6%	inhibition in vivo at 10 mg/kg [1, 22]: 25.1%; inhibition in vivo at 2.5 mg/kg [1, 23]: 44.7%; inhibition in vivo at 5 mg/kg [1, 24]: 42.5%; inhibition in vivo at 10 mg/kg [1, 25]: 47 to 54%; inhibition at 10 µM (5-LOX): 47 ± 4.32%; IC50 (5-LOX): 9.52 ± 1.51 µM; inhibition at 10 µM (COX-2): 23.4 ± 0.57%
COc1cccc(NC(=S)NC(=O)[C@@H](C)c2ccc3cc(OC)ccc3c2)c1 [Compound 4, (S)-2-(6-methoxynaphthalen-2-yl)-N-((3-methoxyphenyl)carbamothioyl)propanamide]	5.93 ± 0.25 mm	5.40 ± 0.10 mm	5.17 ± 0.15 mm	4.90 ± 0.10 mm	6.10 ± 0.44 mm	5.97 ± 0.25 mm	5.70 ± 0.46 mm	5.22 ± 0.50 mm	6.00 ± 0.10 mm	5.70 ± 0.20 mm	5.30 ± 0.17 mm	4.90 ± 0.20 mm	21.6%	29.9%	27.1%	37.2%	28%	32.6%	37.9%	28.8%	inhibition in vivo at 10 mg/kg [1, 22]: 41.5%; inhibition in vivo at 2.5 mg/kg [1, 23]: 40.5%; inhibition in vivo at 5 mg/kg [1, 24]: 43.2%; inhibition in vivo at 10 mg/kg [1, 25]: 54%; inhibition at 10 µM (5-LOX): 77.2 ± 0.26%; IC50 (5-LOX): 0.3 ± 0.12 µM; inhibition at 10 µM (COX-2): 37.71 ± 0.28%
